Laboratory results reported in patent publication US9573964B2, “Oxygen linked pyrimidine derivatives” (CTI BIOPHARMA CORP., priority 2005, dated 2017).

How the values were obtained:
[1] = test system: HEL92.1.7 (erythroleukemia cell line); experiment: Cell-based proliferation assay for GI50, HEL92.1.7; conditions: Homo sapiens, HEL 92.1.7; HEL92.1.7 cells, 96 h treatment
Procedure: (§1) Human cancer cell lines HL60 (acute myeloid leukemia cell line), Colo205 (colon adenocarcinoma cell line), HEL92.1.7 (erythroleukemia cell line) and MV4-11 (acute myeloid leukemia cell line) were obtained from ATCC. They were cultivated in the media according to the ATCC work instructions. Colo205 cells were seeded in 96-wells plate at 5000 cells per well. HEL92.1.7 and MV4-11 cells were seeded at 6000 cells per well while HL60 cells were seeded at 8000 cells per well in 96 well plate. The plates were incubated at 37° C., 5% CO2, for 24 h. Cells were treated with compounds at various concentrations for 96 h. Cell growth was then monitored using Celltiter96 Aqueous One Solution Cell Proliferation Assay from Promega (Madison Wis.). Dose response curves were plotted to determine GI50 values for the compounds using XL-fit (ID Business Solution, Emeryville, Calif.).

FLT3 = target: T1, FLT3 (Homo sapiens, UniProt P36888); experiment: In vitro kinase activity assay (PKLight), FLT3; format: biochemical
T1 construct: purchased Invitrogen PV3182
T1 sequence (P36888 27-993): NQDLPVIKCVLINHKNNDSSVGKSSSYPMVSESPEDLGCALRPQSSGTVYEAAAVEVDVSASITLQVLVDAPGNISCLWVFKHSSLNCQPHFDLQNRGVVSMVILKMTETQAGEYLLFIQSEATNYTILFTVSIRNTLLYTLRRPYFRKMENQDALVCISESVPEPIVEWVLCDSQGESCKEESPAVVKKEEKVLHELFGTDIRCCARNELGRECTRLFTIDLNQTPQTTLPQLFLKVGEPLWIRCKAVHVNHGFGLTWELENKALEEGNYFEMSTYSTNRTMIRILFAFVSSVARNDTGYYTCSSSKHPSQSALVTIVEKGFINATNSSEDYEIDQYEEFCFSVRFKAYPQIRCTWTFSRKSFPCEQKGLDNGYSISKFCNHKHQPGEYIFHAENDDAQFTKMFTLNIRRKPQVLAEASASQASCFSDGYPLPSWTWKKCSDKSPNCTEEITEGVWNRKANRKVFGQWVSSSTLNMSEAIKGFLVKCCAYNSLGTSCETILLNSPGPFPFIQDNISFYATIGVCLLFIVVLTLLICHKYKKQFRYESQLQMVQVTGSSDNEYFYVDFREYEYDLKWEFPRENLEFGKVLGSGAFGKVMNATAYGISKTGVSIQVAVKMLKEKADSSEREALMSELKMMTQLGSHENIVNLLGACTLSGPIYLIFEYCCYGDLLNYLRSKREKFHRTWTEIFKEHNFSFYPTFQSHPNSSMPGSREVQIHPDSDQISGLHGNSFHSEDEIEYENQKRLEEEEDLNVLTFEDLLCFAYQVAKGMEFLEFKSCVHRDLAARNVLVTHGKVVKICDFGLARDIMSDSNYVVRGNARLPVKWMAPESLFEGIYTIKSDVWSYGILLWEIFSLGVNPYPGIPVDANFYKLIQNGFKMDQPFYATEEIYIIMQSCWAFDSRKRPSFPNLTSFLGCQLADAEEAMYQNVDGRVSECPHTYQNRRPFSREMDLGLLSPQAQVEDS
Procedure: (§2) All assays were carried out in 384-well white microtiter plates using the PKLight assay system from Cambrex (East Rutherford, N.J.). This assay platform is essentially a luminometric assay for the detection of ATP in the reaction using a luciferase-coupled reaction. For CDK2/Cyclin A assay, the reaction mixture consisted of the following components in 25 μL assay buffer (50 mM Hepes pH 7.5, 10 mM MgCl2, 5 mM MnCl2, 5 mM BGP, 1 mM DTT, 0.1 mM sodium orthovanadate), 1.4 μg/mL of CDK2/Cyclin A complex, 0.5 μM of RbING substrate (Invitrogen, Cat #PV2939) and 0.5 μM of ATP. The compounds were tested at 8 concentrations prepared from 4-fold serial dilution starting at 10 μM. The reaction was incubated at room temperature for 2 hr. 13 μL of PKLight ATP detection reagent was added and the reaction was incubated for 10 min. Luminescence signals were detected on a multi-label plate reader (Victor^2 V 1420, Perkin-Elmer). The other kinase assays were identical except for the following differences in reagents. For FLT3 assays, the reaction contained 2.0 μg/mL FLT3 enzyme, 5 μM of poly(Glu,Tyr) substrate (Sigma, Cat #P0275) and 4 μM of ATP. For JAK2 assays, the reaction contained 0.6 μg/mL of JAK2 enzyme, 2 μM of poly(Glu,Ala,Tyr) substrate (Sigma, Cat #P3899) and 0.2 μM of ATP. […] The analytical software, Prism 4.0 (GraphPad Software Pte Ltd) was used to generate IC50 values from the data.

[2] = test system: Colo205 (colon adenocarcinoma cell line); experiment: Cell-based proliferation assay for GI50, Colo205; conditions: Homo sapiens, COLO 205; Colo205 cells, 96 h treatment
Procedure: as §1

JAK2 = target: T2, JAK2 (Homo sapiens, UniProt O60674); experiment: In vitro kinase activity assay (PKLight), JAK2; format: biochemical
T2 construct: purchased Invitrogen PV4210
Procedure: as §2

[3] = test system: MV4-11 (acute myeloid leukemia cell line); experiment: Cell-based proliferation assay for GI50, MV4-11; conditions: Homo sapiens; MV4-11 cells, 96 h treatment
Procedure: as §1

[4] = test system: HL60 (acute myeloid leukemia cell line); experiment: Cell-based proliferation assay for GI50, HL60; conditions: Homo sapiens, HL-60; HL60 cells, 96 h treatment
Procedure: as §1

JAK2 V617F = target: T3, JAK2 V617F (Homo sapiens, UniProt O60674, V617F); experiment: In vitro kinase activity assay (PKLight), JAK2 V617F mutant; format: biochemical
T3 construct: purchased Invitrogen PV4347
Procedure: as §2

CDK2/CyclinA = target: T4, CDK2/CyclinA (Homo sapiens, UniProt P24941); experiment: In vitro kinase activity assay (PKLight), CDK2/Cyclin A; format: biochemical; conditions: 0.5 μM ATP
T4 construct: purchased Invitrogen PV3267
Procedure: The recombinant enzymes (CDK2/CyclinA, FLT3, JAK2 and JAK2 V617F) were purchased from Invitrogen (Cat #PV3267, 3182, 4210 and 4347 respectively). All assays were carried out in 384-well white microtiter plates using the PKLight assay system from Cambrex (East Rutherford, N.J.). This assay platform is essentially a luminometric assay for the detection of ATP in the reaction using a luciferase-coupled reaction. For CDK2/Cyclin A assay, the reaction mixture consisted of the following components in 25 μL assay buffer (50 mM Hepes pH 7.5, 10 mM MgCl2, 5 mM MnCl2, 5 mM BGP, 1 mM DTT, 0.1 mM sodium orthovanadate), 1.4 μg/mL of CDK2/Cyclin A complex, 0.5 μM of RbING substrate (Invitrogen, Cat #PV2939) and 0.5 μM of ATP. The compounds were tested at 8 concentrations prepared from 4-fold serial dilution starting at 10 μM. The reaction was incubated at room temperature for 2 hr. 13 μL of PKLight ATP detection reagent was added and the reaction was incubated for 10 min. Luminescence signals were detected on a multi-label plate reader (Victor^2 V 1420, Perkin-Elmer). The other kinase assays were identical except for the following differences in reagents. For FLT3 assays, the reaction contained 2.0 μg/mL FLT3 enzyme, 5 μM of poly(Glu,Tyr) substrate (Sigma, Cat #P0275) and 4 μM of ATP. For JAK2 assays, the reaction contained 0.6 μg/mL of JAK2 enzyme, 2 μM of poly(Glu,Ala,Tyr) substrate (Sigma, Cat #P3899) and 0.2 μM of ATP. For JAK2 V617F mutant assays, the reaction contained 8.0 μg/mL of JAK2 mutant enzyme, 2 μM of poly(Glu,Ala,Tyr) substrate (Sigma, Cat #P3899) and 0.2 μM of ATP. The analytical software, Prism 4.0 (GraphPad Software Pte Ltd) was used to generate IC50 values from the data.

T2 sequence (O60674 whole entry): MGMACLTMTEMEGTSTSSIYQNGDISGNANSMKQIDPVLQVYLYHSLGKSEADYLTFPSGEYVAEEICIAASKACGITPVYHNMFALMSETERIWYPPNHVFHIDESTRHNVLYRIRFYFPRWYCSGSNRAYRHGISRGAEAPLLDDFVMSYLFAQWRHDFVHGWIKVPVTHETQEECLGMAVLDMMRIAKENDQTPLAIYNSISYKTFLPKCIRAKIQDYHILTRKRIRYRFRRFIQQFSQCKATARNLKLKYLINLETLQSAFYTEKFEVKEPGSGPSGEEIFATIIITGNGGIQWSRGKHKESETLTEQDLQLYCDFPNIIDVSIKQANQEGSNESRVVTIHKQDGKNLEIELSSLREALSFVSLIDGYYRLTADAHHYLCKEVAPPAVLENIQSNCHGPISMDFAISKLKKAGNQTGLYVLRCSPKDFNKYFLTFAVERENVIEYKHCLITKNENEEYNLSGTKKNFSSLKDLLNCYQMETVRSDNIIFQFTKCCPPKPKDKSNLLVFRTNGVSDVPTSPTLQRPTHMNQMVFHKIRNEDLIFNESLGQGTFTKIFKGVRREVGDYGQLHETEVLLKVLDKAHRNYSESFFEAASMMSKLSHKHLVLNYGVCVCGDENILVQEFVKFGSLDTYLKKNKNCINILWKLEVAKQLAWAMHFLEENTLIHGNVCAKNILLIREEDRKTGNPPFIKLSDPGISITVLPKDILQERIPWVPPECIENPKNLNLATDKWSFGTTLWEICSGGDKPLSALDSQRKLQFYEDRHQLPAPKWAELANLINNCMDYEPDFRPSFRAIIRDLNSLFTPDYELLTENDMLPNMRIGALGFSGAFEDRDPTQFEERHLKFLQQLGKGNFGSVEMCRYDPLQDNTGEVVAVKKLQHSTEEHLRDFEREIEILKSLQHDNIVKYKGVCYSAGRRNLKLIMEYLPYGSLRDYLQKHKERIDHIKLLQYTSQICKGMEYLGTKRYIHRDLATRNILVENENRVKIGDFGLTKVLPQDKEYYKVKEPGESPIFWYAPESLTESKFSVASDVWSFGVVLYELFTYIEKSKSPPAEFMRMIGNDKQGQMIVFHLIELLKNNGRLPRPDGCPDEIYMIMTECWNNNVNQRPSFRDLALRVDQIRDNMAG
T3 sequence (O60674 whole entry V617F): as the sequence (O60674 whole entry) above, with V617F counted along it

GI50 [1]: > 5000 nM
IC50 (FLT3): ≤ 1000 nM
GI50 [2]: > 5000 nM
IC50 (JAK2): ≤ 1000 nM
GI50 [3]: ≤ 1000 nM
GI50 [4]: 1000 to 5000 nM
IC50 (JAK2 V617F): ≤ 1000 nM
IC50 (CDK2/CyclinA): > 5000 nM
Structure (SMILES): CCN(CC)CCOc1ccc2cc1COC/C=C/CCOc1cc(ccc1OC)-c1ccnc(n1)N2 [Compound 20]
